Results on seven compounds are retold here after ChEMBL document CHEMBL1123029, “Synthesis and biological evaluation of phosphonamidate peptide inhibitors of enkephalinase and angiotensin-converting enzyme” (J Med Chem, 1985).

The target of this test is T1, Neprilysin (Rattus norvegicus, UniProt P07861).
T1 sequence (P07861 whole entry): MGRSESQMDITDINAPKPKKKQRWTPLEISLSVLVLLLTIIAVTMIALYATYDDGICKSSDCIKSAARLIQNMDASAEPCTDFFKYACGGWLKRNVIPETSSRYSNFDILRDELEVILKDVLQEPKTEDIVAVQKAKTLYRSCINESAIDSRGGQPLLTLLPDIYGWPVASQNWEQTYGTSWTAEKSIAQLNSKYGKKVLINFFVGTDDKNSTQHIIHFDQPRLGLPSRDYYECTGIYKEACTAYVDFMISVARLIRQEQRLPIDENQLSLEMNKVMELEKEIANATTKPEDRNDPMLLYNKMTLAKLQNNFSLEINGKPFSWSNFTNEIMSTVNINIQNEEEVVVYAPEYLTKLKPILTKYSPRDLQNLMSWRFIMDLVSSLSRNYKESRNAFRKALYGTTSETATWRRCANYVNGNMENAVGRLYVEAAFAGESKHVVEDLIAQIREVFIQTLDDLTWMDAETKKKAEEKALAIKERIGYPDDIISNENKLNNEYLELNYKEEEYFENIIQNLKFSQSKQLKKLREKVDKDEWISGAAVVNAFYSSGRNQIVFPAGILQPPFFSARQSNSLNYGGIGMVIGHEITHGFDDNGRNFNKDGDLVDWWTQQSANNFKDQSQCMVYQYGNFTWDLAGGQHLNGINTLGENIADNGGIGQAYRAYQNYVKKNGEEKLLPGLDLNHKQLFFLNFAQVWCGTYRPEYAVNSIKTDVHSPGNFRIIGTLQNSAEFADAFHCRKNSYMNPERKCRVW
Briefly: Binding affinity towards enkephalinase (metalloendopeptidase, E.C.3.4.24.11) of rat kidney.

The structures appear in SMILES notation.

Turning to `CC(C)C[C@H](NP(=O)(O)O[C@@H]1O[C@@H](C)[C@H](O)[C@@H](O)[C@H]1O)C(=O)N[C@@H](Cc1c[nH]c2ccccc12)C(=O)O` [PHOSPHORAMIDON], the inhibition constant Ki – broadly, a dissociation constant, usually derived from enzyme kinetics or from competition with a known ligand – turned out to be 0.004 µM.

`CC(C)CC(NC(Cc1ccccc1)NP(=O)(O)CNC(=O)c1ccccc1)C(=O)O` (configuration not stated) came in with a Ki of 10.6 µM.

As to `CC(C)CC(NC(Cc1ccccc1)NP(=O)(O)CNC(=O)Cc1ccccc1)C(=O)O` (configuration not stated), the inhibition constant (Ki) was 80.2 µM.

The compound `CC(C)CC(NC(Cc1ccccc1)NP(=O)(O)CNC(=O)CCc1ccccc1)C(=O)O` (configuration not stated) yielded a Ki of 1210 µM.

Compound `CCOP(=O)(CNC(C)=O)NC(Cc1ccccc1)NC(CCSC)C(=O)O` (configuration not stated) gave an inhibition constant Ki of 160 µM.

As for `CC(=O)NCP(=O)(O)NC(Cc1ccccc1)NC(CC(C)C)C(=O)O` (configuration not stated), the Ki came out at 0.85 µM.

For the compound `CSCCC(NC(Cc1ccccc1)NP(=O)(O)CNC(C)=O)C(=O)O` (configuration not stated), the Ki came to 0.14 µM.
